Measured values from patent US8889874B2, “Imidazolone-chalcone derivatives as potential anticancer agent and process for the preparation thereof” (Council of Scientific and Industrial Research, priority 2010, dated 2014).
Read-outs that look alike come from different tables or passages of the source.

Assays:
Type in all cases: cell-based, human
ACHN (renal) = experiment: NCI anticancer screen, SRB assay, 48 h; details: Homo sapiens
In short: (§1)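 Compounds were tested across fifty three human cancer cell lines from nine tumour types. Each line got a dose-response curve of at least five concentrations at 10-fold dilutions, with continuous drug exposure and sulforhodamine B protein staining to estimate viability or growth.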

COLO 205 (colon) = experiment: NCI anticancer screen, SRB assay, 48 h; details: Homo sapiens, COLO 205
In short: as §1

HCC-2998 (colon) = experiment: NCI anticancer screen, SRB assay, 48 h; details: Homo sapiens
In short: as §1

[1] = tested on: HOP-62 (non-small cell lung); experiment: NCI anticancer screen, SRB assay, 48 h; details: Homo sapiens
In short: as §1

[2] = tested on: HOP-92 (non-small cell lung); experiment: NCI anticancer screen, SRB assay, 48 h; details: Homo sapiens
In short: as §1

M14 (melanoma) = experiment: NCI anticancer screen, SRB assay, 48 h; details: Homo sapiens
In short: as §1

[3] = tested on: NCI-H460 (non-small cell lung); experiment: NCI anticancer screen, SRB assay, 48 h; details: Homo sapiens
In short: as §1

NCI/ADR-RES (ovarian) = experiment: NCI anticancer screen, SRB assay, 48 h; details: Homo sapiens, NCI/ADR-RES
In short: as §1

OVCAR-5 (ovarian) = experiment: NCI anticancer screen, SRB assay, 48 h; details: Homo sapiens
In short: as §1

RXF 393 (renal) = experiment: NCI anticancer screen, SRB assay, 48 h; details: Homo sapiens
In short: as §1

SF-539 (CNS) = experiment: NCI anticancer screen, SRB assay, 48 h; details: Homo sapiens
In short: as §1

SK-MEL-2 (melanoma) = experiment: NCI anticancer screen, SRB assay, 48 h; details: Homo sapiens
In short: as §1

SK-MEL-28 (melanoma) = experiment: NCI anticancer screen, SRB assay, 48 h; details: Homo sapiens
In short: as §1

SN12C (renal) = experiment: NCI anticancer screen, SRB assay, 48 h; details: Homo sapiens, SN12C
In short: as §1

SNB-19 (CNS) = experiment: NCI anticancer screen, SRB assay, 48 h; details: Homo sapiens
In short: as §1

U251 (CNS) = experiment: NCI anticancer screen, SRB assay, 48 h; details: Homo sapiens
In short: as §1

UO-31 (renal) = experiment: NCI anticancer screen, SRB assay, 48 h; details: Homo sapiens
In short: as §1

Breast cancer cell lines = experiment: NCI anticancer screen, SRB assay, panel summary; details: Homo sapiens
In short: as §1

CNS cancer cell lines = experiment: NCI anticancer screen, SRB assay, panel summary; details: for GI50: Homo sapiens
In short: as §1

Colon cancer cell lines = experiment: NCI anticancer screen, SRB assay, panel summary; details: for GI50: Homo sapiens
In short: as §1

[4] = tested on: Leukemia cancer cell lines; experiment: NCI anticancer screen, SRB assay, panel summary; details: Homo sapiens
In short: as §1

[5] = tested on: Melanoma cancer cell lines; experiment: NCI anticancer screen, SRB assay, panel summary; details: for GI50: Homo sapiens
In short: as §1

[6] = tested on: Non-small cell lung cancer cell lines; experiment: NCI anticancer screen, SRB assay, panel summary; details: Homo sapiens
In short: as §1

[7] = tested on: Ovarian cancer cell lines; experiment: NCI anticancer screen, SRB assay, panel summary; details: Homo sapiens
In short: as §1

[8] = tested on: Prostate cancer cell lines; experiment: NCI anticancer screen, SRB assay, panel summary
In short: as §1

Renal cancer cell lines = experiment: NCI anticancer screen, SRB assay, panel summary; details: Homo sapiens
In short: as §1

[9] = 48 h exposure, SRB, read-out: GI50
[10] = read-out: pGI50 (-log of molar concentration causing 50% inhibition of net cell growth) (converted)

COc1ccc(-c2cn(-c3cccc(C(=O)/C=C/c4ccc(O)c(OC)c4)c3)c(=O)[nH]2)cc1 [3b, 1-3-[(E)-3-(4-hydroxy-3-methoxyphenyl)-2-propenoyl]phenyl-4-(4-methoxyphenyl)-2,3-dihydro-1H-2-imidazolone]
GI50 (ACHN (renal); [9]): 3.4 µM
GI50 (ACHN (renal); [10]): 3.39 µM
GI50 (COLO 205 (colon); COLO205, read-out: pGI50 (-log of molar concentration causing 50% inhibition of net cell growth) (converted)): 6.61 µM
GI50 (COLO 205 (colon); [9]): 6.61 µM
GI50 (HCC-2998 (colon); [9]): 2320 nM
GI50 (HCC-2998 (colon); [10]): 2340 nM
GI50 [1, 9]: 5.15 µM
GI50 [1, 10]: 5.13 µM
GI50 [2, 9]: 2960 nM
GI50 [2, 10]: 2950 nM
GI50 (M14 (melanoma); [9]): 5.14 µM
GI50 (M14 (melanoma); [10]): 5.13 µM
GI50 [3, 9]: 3.23 µM
GI50 [3, 10]: 3.24 µM
GI50 (NCI/ADR-RES (ovarian); NCl/ADR-RES, 48 h exposure, SRB, read-out: GI50): 2560 nM
GI50 (NCI/ADR-RES (ovarian); [10]): 2570 nM
GI50 (OVCAR-5 (ovarian); [9]): 3.38 µM
GI50 (OVCAR-5 (ovarian); [10]): 3.39 µM
GI50 (RXF 393 (renal); RXF 393, 48 h exposure, SRB, read-out: GI50): 5.85 µM
GI50 (RXF 393 (renal); RXF-393, read-out: pGI50 (-log of molar concentration causing 50% inhibition of net cell growth) (converted)): 5.89 µM
GI50 (SF-539 (CNS); [9]): 2250 nM
GI50 (SF-539 (CNS); [10]): 2240 nM
GI50 (SK-MEL-2 (melanoma); [9]): 5.54 µM
GI50 (SK-MEL-2 (melanoma); [10]): 5.5 µM
GI50 (SK-MEL-28 (melanoma); [9]): 2030 nM
GI50 (SK-MEL-28 (melanoma); [10]): 2040 nM
GI50 (SN12C (renal); SN 12C, read-out: pGI50 (-log of molar concentration causing 50% inhibition of net cell growth) (converted)): 4.07 µM
GI50 (SN12C (renal); [9]): 4.11 µM
GI50 (SNB-19 (CNS); [9]): 5.84 µM
GI50 (SNB-19 (CNS); [10]): 5.89 µM
GI50 (U251 (CNS); U-251, 48 h exposure, SRB, read-out: GI50): 3.45 µM
GI50 (U251 (CNS); U-251, read-out: pGI50 (-log of molar concentration causing 50% inhibition of net cell growth) (converted)): 3.47 µM
GI50 (UO-31 (renal); [9]): 5.19 µM
GI50 (UO-31 (renal); [10]): 5.25 µM
GI50 (Breast cancer cell lines; Breast panel, log of concentration in mol/L causing 50% inhibition of net cell growth, read-out: mean graph midpoint (MG_MID) of Log10 GI50 (converted)): 4.17 µM
LC50 (Breast cancer cell lines; Breast panel, log of concentration leading to 50% net cell death, read-out: mean graph midpoint (MG_MID) of Log10 LC50 (converted)): 100 µM
GI50 (Breast cancer cell lines; five breast cancer cell lines, exposure at least 48 hrs, read-out: GI50, range over the panel): 3.18 to 5.25 µM
mean graph midpoint (MG_MID) of Log10 LC50 (CNS cancer cell lines; CNS panel, log of concentration leading to 50% net cell death): 4.06
GI50 (CNS cancer cell lines; CNS panel, log of concentration in mol/L causing 50% inhibition of net cell growth, read-out: mean graph midpoint (MG_MID) of Log10 GI50 (converted)): 4.68 µM
GI50 (CNS cancer cell lines; six CNS cancer cell lines, exposure at least 48 hrs, read-out: GI50, range over the panel): 2.25 to 13.9 µM
mean graph midpoint (MG_MID) of Log10 LC50 (Colon cancer cell lines; Colon panel, log of concentration leading to 50% net cell death): 4.33
GI50 (Colon cancer cell lines; Colon panel, log of concentration in mol/L causing 50% inhibition of net cell growth, read-out: mean graph midpoint (MG_MID) of Log10 GI50 (converted)): 2880 nM
GI50 (Colon cancer cell lines; seven colon cancer cell lines, exposure at least 48 hrs, read-out: GI50, range over the panel): 1770 to 6610 nM
GI50 ([4]; Leukemia panel, log of concentration in mol/L causing 50% inhibition of net cell growth, read-out: mean graph midpoint (MG_MID) of Log10 GI50 (converted)): 1780 nM
LC50 ([4]; Leukemia panel, log of concentration leading to 50% net cell death, read-out: mean graph midpoint (MG_MID) of Log10 LC50 (converted)): 38 µM
GI50 ([4]; two leukemia cancer cell lines (RPMI-8226 and K-562), exposure at least 48 hrs, read-out: GI50, range over the panel): 1350 to 2350 nM
GI50 ([5]; Melanoma panel, log of concentration in mol/L causing 50% inhibition of net cell growth, read-out: mean graph midpoint (MG_MID) of Log10 GI50 (converted)): 4.07 µM
GI50 ([5]; nine melanoma cancer cell lines, exposure at least 48 hrs, read-out: GI50, range over the panel): 2.03 to 13.3 µM
mean graph midpoint (MG_MID) of Log10 LC50 ([5]; Melanoma panel, log of concentration leading to 50% net cell death): 4.13
GI50 ([6]; Non-small cell lung panel, log of concentration in mol/L causing 50% inhibition of net cell growth, read-out: mean graph midpoint (MG_MID) of Log10 GI50 (converted)): 4.68 µM
LC50 ([6]; Non-small cell lung panel, log of concentration leading to 50% net cell death, read-out: mean graph midpoint (MG_MID) of Log10 LC50 (converted)): ≥ 100 µM
GI50 ([6]; nine non-small cell lung cancer cell lines, exposure at least 48 hrs, read-out: GI50, range over the panel): 2.85 to 13.4 µM
GI50 ([7]; Ovarian panel, log of concentration in mol/L causing 50% inhibition of net cell growth, read-out: mean graph midpoint (MG_MID) of Log10 GI50 (converted)): 3.89 µM
LC50 ([7]; Ovarian panel, log of concentration leading to 50% net cell death, read-out: mean graph midpoint (MG_MID) of Log10 LC50 (converted)): 100 µM
GI50 ([7]; six ovarian cancer cell lines, exposure at least 48 hrs, read-out: GI50, range over the panel): 2.56 to 6.08 µM
GI50 ([8]; Homo sapiens, log of concentration in mol/L causing 50% inhibition of net cell growth, read-out: mean graph midpoint (MG_MID) of Log10 GI50 (converted)): 3.02 µM
LC50 ([8]; Homo sapiens, log of concentration leading to 50% net cell death, read-out: mean graph midpoint (MG_MID) of Log10 LC50 (converted)): ≥ 100 µM
mean graph midpoint (MG_MID) of Log10 TGI ([8]; log of concentration resulting in total inhibition of net cell growth): 4.80
GI50 (Renal cancer cell lines; Renal panel, log of concentration in mol/L causing 50% inhibition of net cell growth, read-out: mean graph midpoint (MG_MID) of Log10 GI50 (converted)): 4.68 µM
LC50 (Renal cancer cell lines; Renal panel, log of concentration leading to 50% net cell death, read-out: mean graph midpoint (MG_MID) of Log10 LC50 (converted)): 95.5 µM
GI50 (Renal cancer cell lines; eight renal cancer cell lines, exposure at least 48 hrs, read-out: GI50, range over the panel): 3.4 to 6.08 µM
